Laboratory results: patent publication US6403055B1, “Diagnostic imaging contrast agent with improved in serum relaxivity” (Dibra S.p.A., priority 1996, dated 2002)

Legend:
[1] = Relaxivity (r1, r2) in saline; assay type: physicochemical; conditions: NaCl 0.15M in water - pH 7.3 - 20 MHz - 39° C.
Text: (§1) Relaxivity values of the contrast agent of the present invention have been tested either in saline or in human serum obtained by Seronorm™ Human, freeze-dried human serum produced by Nycomed Pharma AS, Oslo, Norway. Serum obtained from said Seronorm™ is substantially equivalent to the fresh one, so its use in the relaxivity determination grants a good picture of the “in vivo” behaviour and, further, an excellent reproducibility of this test.

[2] = Relaxivity (r1, r2) in human serum (Seronorm™ Human); assay type: physicochemical; conditions: Between 0 and 1 mM (Seronorm™ Human) - 20 MHz - 39° C.
Text: as §1
The compounds object of the present invention are characterised by very high r1 and r2 relaxivity values. When measured in Seronorm™ Human at 20 MHz, at a temperature of 39° C., and at a concentration comprised from 0 to 1 mM, the compounds of the present invention have r1 relaxivity equal to or, preferably, higher than 15 s^−1mm^−1.

With `CCC(C)C(C(=O)[O-])N(CCN(CCN(CC(=O)[O-])C(C(=O)[O-])C(C)CC)[C@H](C(=O)[O-])[C@@H](C)CC)CC(=O)[O-].[Gd+3].[Na+].[Na+]` (relative stereo) [Compound 2, [[[1S-[1R*(1R*,2R*),2R*]]-N,N-Bis[2-[(carboxymethyl)(1-carboxy-2-methylbutyl)amino]ethyl]-L-isoleucinate-(5-)]gadolinate(2-)]disodium salt.] the “Relaxivity Saline r1” value [1] was 5.07 mM⁻¹ s⁻¹ and the “Relaxivity Serum r1” value [2] was 11.9 mM⁻¹ s⁻¹.
